#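 Following 48 hours of exposure in 96-well plates, responses at five concentrations were used to interpolate endpoints linearly. GI50 marks 50% less growth. Definition used: TGI = concentration required for complete inhibition of growth.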
# How the values were obtained:
# Assay in all cases: NCI tumour cell line growth inhibition, 48 h
# NCI/ADR-RES ovarian = system: NCI/ADR-RES ovarian
# SW-620 colon = system: SW-620 colon
# TK-10 renal = system: TK-10 renal
# SK-MEL-2 melanoma = system: SK-MEL-2 melanoma
# MDA-MB-231 breast = system: MDA-MB-231 breast
# MOLT-4 leukemia = system: MOLT-4 leukemia
# OVCAR-8 ovarian = system: OVCAR-8 ovarian
# HOP-92 NSCLC = system: HOP-92 NSCLC
# SK-MEL-5 melanoma = system: SK-MEL-5 melanoma
# SR leukemia = system: SR leukemia
# BT-549 breast = system: BT-549 breast
# M14 melanoma = system: M14 melanoma
# UO-31 renal = system: UO-31 renal
# DU-145 prostate = system: DU-145 prostate
# NCI-H522 lung = system: NCI-H522 lung
# A549 NSCLC = system: A549 NSCLC
# MCF7 breast = system: MCF7 breast
# UACC-62 melanoma = system: UACC-62 melanoma
# A498 renal = system: A498 renal
# KM12 colon = system: KM12 colon
# CAKI-1 renal = system: CAKI-1 renal
# SF-295 CNS = system: SF-295 CNS
# OVCAR-5 ovarian = system: OVCAR-5 ovarian
# NCI-H226 lung = system: NCI-H226 lung
# HL-60(TB) leukemia = system: HL-60(TB) leukemia
# SF-268 CNS = system: SF-268 CNS
# NCI-H23 lung = system: NCI-H23 lung
# SN12C renal = system: SN12C renal
# HCT-15 colon = system: HCT-15 colon
# UACC-257 melanoma = system: UACC-257 melanoma
# SF-539 CNS = system: SF-539 CNS
# 786-0 renal = system: 786-0 renal
# EKVX NSCLC = system: EKVX NSCLC
# MDA-MB-435 = system: MDA-MB-435
# OVCAR-3 ovarian = system: OVCAR-3 ovarian
# IGROV1 ovarian = system: IGROV1 ovarian
# NCI-H460 lung = system: NCI-H460 lung
# PC-3 prostate = system: PC-3 prostate
# ACHN renal = system: ACHN renal
# RPMI-8226 leukemia = system: RPMI-8226 leukemia
# HS 578T breast = system: HS 578T breast
# K-562 leukemia = system: K-562 leukemia
# HCC-2998 colon = system: HCC-2998 colon
# CCRF-CEM leukemia = system: CCRF-CEM leukemia
# RXF 393 renal = system: RXF 393 renal
# HCT-116 colon = system: HCT-116 colon
# U251 CNS = system: U251 CNS
# MALME-3M melanoma = system: MALME-3M melanoma
# OVCAR-4 ovarian = system: OVCAR-4 ovarian
# LOX IMVI melanoma = system: LOX IMVI melanoma
# SNB-19 CNS = system: SNB-19 CNS
# SNB-75 CNS = system: SNB-75 CNS
# SK-MEL-28 melanoma = system: SK-MEL-28 melanoma
# HT29 colon = system: HT29 colon
# HOP-62 NSCLC = system: HOP-62 NSCLC
# SK-OV-3 ovarian = system: SK-OV-3 ovarian
# COLO 205 colon = system: COLO 205 colon
smiles,measurement,setting,value
COc1ccc(OC)c(-c2cc(-c3ccc(Cl)cc3)nn2-c2ccccc2)c1,GI50,NCI/ADR-RES ovarian,15.8 µM
same,TGI,NCI/ADR-RES ovarian,60.9 µM
same,GI50,SW-620 colon,17 µM
same,TGI,SW-620 colon,78.4 µM
same,GI50,TK-10 renal,26.1 µM
same,TGI,TK-10 renal,88.2 µM
same,GI50,SK-MEL-2 melanoma,> 100 µM
same,TGI,SK-MEL-2 melanoma,> 100 µM
same,GI50,MDA-MB-231 breast,17.8 µM
same,TGI,MDA-MB-231 breast,80 µM
same,GI50,MOLT-4 leukemia,8.7 µM
same,TGI,MOLT-4 leukemia,> 100 µM
same,GI50,OVCAR-8 ovarian,24.4 µM
same,TGI,OVCAR-8 ovarian,93.9 µM
same,GI50,HOP-92 NSCLC,29.3 µM
same,TGI,HOP-92 NSCLC,> 100 µM
same,GI50,SK-MEL-5 melanoma,42.2 µM
same,TGI,SK-MEL-5 melanoma,> 100 µM
same,GI50,SR leukemia,4.34 µM
same,TGI,SR leukemia,> 100 µM
same,GI50,BT-549 breast,28.8 µM
same,TGI,BT-549 breast,84.4 µM
same,GI50,M14 melanoma,14.8 µM
same,TGI,M14 melanoma,45.6 µM
same,GI50,UO-31 renal,> 100 µM
same,TGI,UO-31 renal,> 100 µM
same,GI50,DU-145 prostate,96.7 µM
same,TGI,DU-145 prostate,> 100 µM
same,GI50,NCI-H522 lung,12.6 µM
same,TGI,NCI-H522 lung,> 100 µM
same,GI50,A549 NSCLC,65.8 µM
same,TGI,A549 NSCLC,> 100 µM
same,GI50,MCF7 breast,6.89 µM
same,TGI,MCF7 breast,> 100 µM
same,GI50,UACC-62 melanoma,11.2 µM
same,TGI,UACC-62 melanoma,55.3 µM
same,GI50,A498 renal,6.57 µM
same,TGI,A498 renal,59.7 µM
same,GI50,KM12 colon,23.1 µM
same,TGI,KM12 colon,> 100 µM
same,GI50,CAKI-1 renal,24.2 µM
same,TGI,CAKI-1 renal,66.9 µM
same,GI50,SF-295 CNS,33.5 µM
same,TGI,SF-295 CNS,> 100 µM
same,GI50,OVCAR-5 ovarian,88.4 µM
same,TGI,OVCAR-5 ovarian,> 100 µM
same,GI50,NCI-H226 lung,33 µM
same,TGI,NCI-H226 lung,> 100 µM
same,GI50,HL-60(TB) leukemia,35.9 µM
same,TGI,HL-60(TB) leukemia,> 100 µM
same,GI50,SF-268 CNS,18.2 µM
same,TGI,SF-268 CNS,57.8 µM
same,GI50,NCI-H23 lung,27.7 µM
same,TGI,NCI-H23 lung,> 100 µM
same,GI50,SN12C renal,23.9 µM
same,TGI,SN12C renal,69.6 µM
same,GI50,HCT-15 colon,34.2 µM
same,TGI,HCT-15 colon,> 100 µM
same,GI50,UACC-257 melanoma,6.45 µM
same,TGI,UACC-257 melanoma,49.1 µM
same,GI50,SF-539 CNS,36 µM
same,TGI,SF-539 CNS,95.2 µM
same,GI50,786-0 renal,17.3 µM
same,TGI,786-0 renal,57.7 µM
same,GI50,EKVX NSCLC,82.8 µM
same,TGI,EKVX NSCLC,> 100 µM
same,GI50,MDA-MB-435,18.3 µM
same,TGI,MDA-MB-435,46.1 µM
same,GI50,OVCAR-3 ovarian,23.7 µM
same,TGI,OVCAR-3 ovarian,46.7 µM
same,GI50,IGROV1 ovarian,59.5 µM
same,TGI,IGROV1 ovarian,> 100 µM
same,GI50,NCI-H460 lung,33.8 µM
same,TGI,NCI-H460 lung,> 100 µM
same,GI50,PC-3 prostate,24.2 µM
same,TGI,PC-3 prostate,> 100 µM
same,GI50,ACHN renal,46.2 µM
same,TGI,ACHN renal,> 100 µM
same,GI50,RPMI-8226 leukemia,3.29 µM
same,TGI,RPMI-8226 leukemia,26.5 µM
same,GI50,HS 578T breast,18.5 µM
same,TGI,HS 578T breast,> 100 µM
same,GI50,K-562 leukemia,5.89 µM
same,TGI,K-562 leukemia,42.4 µM
same,GI50,HCC-2998 colon,26.4 µM
same,TGI,HCC-2998 colon,52.8 µM
same,GI50,CCRF-CEM leukemia,8.57 µM
same,TGI,CCRF-CEM leukemia,> 100 µM
COc1nc2c(c(=O)[nH]1)N=C(c1ccccc1)CC(c1ccccc1)N2 (centres undefined),TGI,NCI/ADR-RES ovarian,> 100 µM
same,TGI,SW-620 colon,> 100 µM
same,TGI,SK-MEL-2 melanoma,> 100 µM
same,TGI,RXF 393 renal,71.7 µM
same,TGI,MDA-MB-231 breast,81.6 µM
same,TGI,HCT-116 colon,> 100 µM
same,TGI,MOLT-4 leukemia,96.9 µM
same,TGI,OVCAR-8 ovarian,> 100 µM
same,TGI,U251 CNS,> 100 µM
same,TGI,MALME-3M melanoma,> 100 µM
same,TGI,HOP-92 NSCLC,> 100 µM
same,TGI,SK-MEL-5 melanoma,> 100 µM
same,TGI,BT-549 breast,> 100 µM
same,TGI,M14 melanoma,> 100 µM
same,TGI,UO-31 renal,> 100 µM
same,TGI,OVCAR-4 ovarian,81.4 µM
same,TGI,DU-145 prostate,> 100 µM
same,TGI,NCI-H522 lung,> 100 µM
same,TGI,LOX IMVI melanoma,> 100 µM
same,TGI,A549 NSCLC,> 100 µM
same,TGI,MCF7 breast,> 100 µM
same,TGI,UACC-62 melanoma,> 100 µM
same,TGI,A498 renal,> 100 µM
same,TGI,SNB-19 CNS,> 100 µM
same,TGI,KM12 colon,> 100 µM
same,TGI,CAKI-1 renal,> 100 µM
same,TGI,SF-295 CNS,> 100 µM
same,TGI,OVCAR-5 ovarian,> 100 µM
same,TGI,NCI-H226 lung,> 100 µM
same,TGI,SNB-75 CNS,52.5 µM
same,TGI,NCI-H23 lung,> 100 µM
same,TGI,SN12C renal,> 100 µM
same,TGI,UACC-257 melanoma,> 100 µM
same,TGI,SF-539 CNS,> 100 µM
same,TGI,786-0 renal,> 100 µM
same,TGI,EKVX NSCLC,> 100 µM
same,TGI,MDA-MB-435,> 100 µM
same,TGI,OVCAR-3 ovarian,> 100 µM
same,TGI,IGROV1 ovarian,> 100 µM
same,TGI,SK-MEL-28 melanoma,> 100 µM
same,TGI,NCI-H460 lung,> 100 µM
same,TGI,HT29 colon,> 100 µM
same,TGI,PC-3 prostate,> 100 µM
same,TGI,ACHN renal,> 100 µM
same,TGI,RPMI-8226 leukemia,75 µM
same,TGI,HOP-62 NSCLC,> 100 µM
same,TGI,SK-OV-3 ovarian,> 100 µM
same,TGI,K-562 leukemia,60.3 µM
same,TGI,HCC-2998 colon,> 100 µM
same,TGI,COLO 205 colon,> 100 µM
same,TGI,CCRF-CEM leukemia,> 100 µM
